What was measured:
Assay type in all cases: cell-based, human
SCC-13 cells = test: Trypan Blue viability assay, SCC-13 spheroids; details: 0-20 μM, 0-72 hours
Method: Trypan Blue viability assay. SCC-13 cells were grown as spheroids in six well cluster dishes in spheroid medium for 8 days and then treated with 0-20 μM NC9. At 0, 24, 48, and 72 hours post-NC9 treatment, spheroids were counted, and all cells in the well were collected to prepare a single cell suspension in Hank's Balanced Salt Solution. Trypan Blue solution (0.5 mL, 0.4%) was added to a 15 mL conical tube with 0.3 mL of Hank's Balanced Salt Solution and 0.2 ml of cell suspension. After 10 min, 8 μL of the mixture was transferred to a hemocytometer to count viable and total cell number.

EGFR = test: Immunoblot of EGFR and phospho-EGFR in GBM cells
Method: In (A) it is shown that shorter treatments with NC9 had no effect on EGF-stimulated EGFR phosphorylation in U87 cells. U87 cells were treated with 10 μM NC9 or DMSO control for 24 h followed by 10 min of 100 ng/mL EGF treatment. At the end of the treatments, cells were lysed and 20 μg of lysates from U87 cells were blotted for phospho-EGFR, EGFR and tubulin. […] Cell medium was changed every 24 h and fresh inhibitors or DMSO was added to the medium. At the end of the treatment, cells were lysed and 20 μg of lysates from cells U87 and T98G were blotted for phospho-EGFR, EGFR and actin.
Immunoblotting. Cells were rinsed in ice-cold phosphate-buffered saline (PBS) and collected in lysis buffer, containing 0.5% NP-40, 150 mM NaCl, 10 mM Tris-Cl (pH 7.4), 1 mM EGTA, 1 mM EDTA, 1 mM phenylmethylsulphonyl fluoride, 1 μM okadaic acid, and 10 μg/mL each of aprotinin, leupeptin, and pepstatin. Samples were sonicated on ice and centrifuged at 16,000 g for 10 min. Protein concentrations of supernatants were then determined by the bicinchoninic acid assay with bovine serum albumin (BSA) as a standard and samples were diluted to a final concentration of 1 mg/mL with 2× reducing stop buffer (0.25 M Tris-HCl, pH 6.8, 5 mM EDTA, 5 mM EGTA, 25 mM dithiothreitol, 2% SDS, 10% glycerol, and bromophenol blue as the tracking dye). […]

TG2 level = TG2 level immunoblot, SCC-13 spheroids; details: 20 μM, 48 hours
Method: In (A), SCC-13 cells (40,000) were plated in non-adherent six well dishes, grown for 8 days in spheroid medium, and then NC9 was added and spheroid number was monitored at 0-48 hours. In (B), spheroids were grown for 10 days, treated for 48 hours with indicated level of NC9 and photographed. In (C), SCC-13 cells were plated at 40,000 cells per well in non-adherent six well dishes and after 10 days the spheroids were treated with 0-20 μM NC9 for 0-72 hours before trypan blue exclusion viability assay. In (D), SCC-13 spheroids were grown for 10 days, treated with 0 or 20 μM NC9 for 48 hours, and TG2 level was assayed by immunoblot. In (E), SCC-13 cells were grown as monolayers in spheroid medium and TG2 activity was monitored by FC incorporation assay as outlined in the Materials and Methods for Example 7. In (F), SCC-13 cell 8 day spheroids were treated with […] NC9 and cells were harvested at the indicated times for immunoblot detection of procaspase 3 and cleaved caspase 3. In all panels, the values are mean±SEM, n=3, p<0.05.

SMILES: C=CC(=O)NCCCC[C@H](NC(=O)OCc1ccccc1)C(=O)NCCOCCOCCNS(=O)(=O)c1cccc2c(N(C)C)cccc12 [NC9]
- viable cell number (trypan blue exclusion) (SCC-13 cells): concentration-dependent reduction in viable cell number
- phospho-EGFR and EGFR levels, longer treatment (EGFR; U87 and T98G cells, 10 μM, 48-72 h): decrease phospho-EGFR and EGFR levels in U87 cells, but not T98G cells
- EGFR or phospho-EGFR levels, shorter treatment (EGFR; U87 cells, 10 μM 24 h, then 100 ng/mL EGF 10 min): did not result in a decrease
- TG2 level (TG2 level): not associated with reduced TG2 level

From patent US10894777B2, “TG2 inhibitor piperazine compounds and uses thereof” (UNIVERSITY OF OTTAWA, priority 2016, dated 2021)
